Reference: patent publication US20030226169A1, “DNA sequences encoding antifungal proteins” (priority 1995, published 2003)
≈ marks a conversion by molar mass, not a printed value. Like-named read-outs stand apart in the source and are kept apart here. Residues, ends and D or L forms follow the SMILES beside them.

Experiments:
F culmorum = experiment: Antifungal activity of combinations of Rs-AFP and 15-mer peptides; type: cell-based, Fusarium culmorum; details: 100 x MIC of Rs-AFP2 / MIC of Rs-AFP2/peptide combination; 15-mer peptide added at 20 μg/ml; SMF medium; BSA-coated plates; Rs-AFP2 alone = 100
Method: The 15-mer peptides were tested for their ability to affect the antifungal activity of the Rs-AFP2 protein (SEQ ID NO: 35). Each peptide was added at a subinhibitory concentration (20 μg/ml ) to a twofold dilution series of Rs-AFP2 (SEQ ID NO: 35) ranging from 20 μg/ml down to 0.15 μg/ml. In the control series only water was added.
The target fungus was F culmorum and the growth medium was SMF. In order to exclude the effect of differential binding of the peptides to the microplate wells, the plates were coated with bovine serum albumin. […] The relative specific activity is defined as one hundred times the MIC of Rs-AFP2 divided by the MIC of the Rs-AFP2/peptide combination. Data are based on duplicate tests.

[1] = test system: Fusarium culmorum (IMI 180420); experiment: Antifungal growth inhibition microplate assay (photospectrometry); type: cell-based; details: ½ PDB; for IC50 / F CULMORUM IC / F CULMORUM IC50: the source numbers peptides by N-terminal amino acid; for F CULMORUM IC: Table 6 / FIG. 8: Rs-AFP1-based 9-mer split peptides; for F CULMORUM IC50: Table 7 / FIG. 8: Rs-AFP1-based 12-mer split peptides
Method: (§1) The following fungal strains were used: Alternaria brassicicola (MUCL 20297), Ascophyta pisi (MUCL 30164), Botrytis cinerea (MUCL 30158), Fusarium culmorum (IMI 180420) and Verticillium dahliae (MUCL 19210).
(§2) Fungi were grown on six cereal agar plates at room temperature and under white fluorescent light except for F culmorum and V dahliae which were grown in the dark. The duration of the spore harvest varied between 10 and 25 days depending on the strain. Spores were collected as follows. Five to ten ml of sterile milli-Q water was poured into each dish and the surface of the agar was rubbed with a sterile spatula to obtain a suspension containing mycelium and spores. This suspension was filtered through a sterile glasswool-plugged funnel and the filtrate containing the spores was collected in a sterile polypropylene centrifuge tube. The A brassicicola spores were suspended in sterile 0.1 Tween 20 (Merk, 822184) due to their hydrophobic nature. The spore suspensions were then washed twice by centrifugation at 2,400×g for 15 minutes and resuspended in a small volume of steril milli-Q water. The spore density was determined in a counting chamber and then adjusted to 4×10^7 spores per ml. Aliquots of the spore suspension were transferred to sterile microtubes and an equal volume of sterile 50% glycerol (Merck, 4091) was added to each tube so that a final spore suspension of 2×10^7 spores per ml in 25% glycerol was obtained. After careful mixing of the stock, the spore suspension was transferred in 100 μl aliquots to sterile microtubes and stored at −80° C.
(§3) Antifungal activity was measured by photospectrometry as described by Broekaert et al, (1990, FEMS Microbiol Lett, 69:55-60). Tests were performed by adding 20 μl of test solution and 80 μl of a fungal spore suspension (2×10^4 spores/ml) per well in a sterile flat-bottom 96-well microtiterplate. The spore suspension was prepared by diluting the stock spore suspension ([…] in 25% glycerol) 1:1000 in half-strength potato dextrose broth. A positive growth control consisting of eight wells containing 20 μl of sterile milli-Q water and 80 μl of the fungal spore suspension was included in each test. The microtiterplates were incubated (with the lid on) in an aerated place at room temperature and under conditions of darkness for all test organisms.
(§4) After 30 minutes of incubation (when the spores are settled on the well bottom) the optical density was measured in a microplate reader (Bio Rad 3550-UV) at 595 nm. Incubation of the microtiterplates continued until the optical density of the control microculture was between 0.250 and 0.500, which took approximately 72 hours (96 hours for V dahliae). Percentage of growth inhibition (% GI) was estimated as 100 times the ratio of the corrected absorbance of the control microculture minus the corrected absorbance of the test microculture over the corrected absorbance of the control microculture at 595 nm. The corrected absorbance values equal the absorbance at 595 nm of the culture measured after 72 or 96 hours minus the absorbance at 595 nm measured after 30 minutes.
(§5) % GI=[(Acontrol−Atest/Acontrol]×100
(§6) where Acontrol=(A72/96h−A30min)control
(§7) The IC50 value is defined as the concentration that gives a 50% growth inhibition after 72 or 96 hours of incubation. The minimum inhibitory concentration (MIC) corresponds to the minimum concentration that gives 100% growth inhibition after 72 or 96 hours incubation.

[2] = test system: Ascophyta pisi (MUCL 30164); type: cell-based; details: ½ PDB; for A PISI IC: the source numbers peptides by N-terminal amino acid
Method: as §1, §2, §3, §4, §5, §6, §7

[3] = Table 3 / FIG. 6: Rs-AFP2-based 9-mer split peptides
[4] = Table 3: Rs-AFP2-based 9-mer split peptides, duplicate
[5] = Table 6: Rs-AFP1-based 9-mer split peptides
[6] = Table 4 / FIG. 6: Rs-AFP2-based 12-mer split peptides
[7] = Table 4: Rs-AFP2-based 12-mer split peptides, triplicate
[8] = Table 7: Rs-AFP1-based 12-mer split peptides

CC(=O)N[C@@H](CCC(N)=O)C(=O)N[C@@H](CCCCN)C(=O)N[C@@H](CC(C)C)C(=O)N[C@@H](CS)C(=O)N[C@@H](CCC(N)=O)C(=O)N[C@@H](CCCNC(=N)N)C(=O)N1CCC[C@H]1C(=O)N[C@@H](CO)C(=O)NCC(=O)N[C@H](C(=O)N[C@@H](Cc1c[nH]c2ccccc12)C(=O)N[C@@H](CO)C(=O)NCC(=O)N[C@H](C(=O)N[C@@H](CS)C(N)=O)C(C)C)[C@@H](C)O [Peptide 1 (Rs-AFP2 15-mer)] (Ac-QKLCQRPSGTWSGVC-NH2; N-terminus and C-terminus assumed)
Relative Specific Antifungal Activity (F culmorum): 310

CC[C@H](C)[C@H](NC(=O)[C@H](CS)NC(=O)[C@H](CCCCN)NC(=O)[C@H](Cc1c[nH]cn1)NC(=O)[C@H](C)NC(C)=O)C(=O)N[C@@H](CS)C(=O)N[C@@H](Cc1ccc(O)cc1)C(=O)N[C@@H](Cc1ccccc1)C(=O)N1CCC[C@H]1C(N)=O [compound 88] (Ac-AHKCICYFP-NH2)
IC50 [1, 3]: 35 µg/mL (≈ 31.2 µM) | MIC [1, 4]: 50 µg/mL (≈ 44.5 µM) | F CULMORUM IC [1]: 21 µg/mL | F CULMORUM MIC [1, 5]: 37.5 µg/mL | A PISI MIC [2, 5]: 25 µg/mL | A PISI IC [2, 5]: 18 µg/mL

CC[C@H](C)[C@H](NC(=O)[C@H](CS)NC(=O)[C@H](CCCCN)NC(=O)[C@H](Cc1c[nH]cn1)NC(C)=O)C(=O)N[C@@H](CS)C(=O)N[C@@H](Cc1ccc(O)cc1)C(=O)N[C@@H](Cc1ccccc1)C(=O)N1CCC[C@H]1C(=O)N[C@@H](CS)C(N)=O [compound 89] (Ac-HKCICYFPC-NH2)
F CULMORUM IC [1]: 233 µg/mL | A PISI IC [2, 5]: 70 µg/mL

CC(=O)NCC(=O)N[C@@H](CO)C(=O)N[C@@H](CS)C(=O)N[C@@H](CC(N)=O)C(=O)N[C@@H](Cc1ccc(O)cc1)C(=O)N[C@H](C(=O)N[C@@H](Cc1ccccc1)C(=O)N1CCC[C@H]1C(=O)N[C@@H](C)C(=O)N[C@@H](Cc1c[nH]cn1)C(=O)N[C@@H](CCCCN)C(=O)N[C@@H](CS)C(N)=O)C(C)C [compound 123] (Ac-GSCNYVFPAHKC-NH2)
IC50 [1, 6]: 280 µg/mL (≈ 205 µM) | MIC [1, 7]: 300 µg/mL (≈ 220 µM) | F CULMORUM IC50 [1]: 266 µg/mL | F CULMORUM MIC [1, 8]: 300 µg/mL | A PISI IC50 [2, 8]: 349 µg/mL | A PISI MIC [2, 8]: >400 µg/mL

CC[C@H](C)[C@H](NC(=O)[C@H](CS)NC(=O)[C@H](CCCCN)NC(=O)[C@H](Cc1c[nH]cn1)NC(=O)[C@H](C)NC(=O)[C@@H]1CCCN1C(=O)[C@H](Cc1ccccc1)NC(=O)[C@@H](NC(=O)[C@H](Cc1ccc(O)cc1)NC(=O)[C@H](CC(N)=O)NC(=O)[C@H](CS)NC(=O)[C@H](CO)NC(C)=O)C(C)C)C(N)=O [compound 124] (Ac-SCNYVFPAHKCI-NH2)
IC50 [1, 6]: 135 µg/mL (≈ 94.9 µM) | MIC [1, 7]: 200 µg/mL (≈ 141 µM) | F CULMORUM IC50 [1]: 213 µg/mL | F CULMORUM MIC [1, 8]: 300 µg/mL | A PISI IC50 [2, 8]: 318 µg/mL | A PISI MIC [2, 8]: >400 µg/mL

CC[C@H](C)[C@H](NC(=O)[C@H](CS)NC(=O)[C@H](CCCCN)NC(=O)[C@H](Cc1c[nH]cn1)NC(=O)[C@H](C)NC(=O)[C@@H]1CCCN1C(=O)[C@H](Cc1ccccc1)NC(=O)[C@@H](NC(=O)[C@H](Cc1ccc(O)cc1)NC(=O)[C@H](CC(N)=O)NC(C)=O)C(C)C)C(=O)N[C@@H](CS)C(=O)N[C@@H](Cc1ccc(O)cc1)C(N)=O [compound 126] (Ac-NYVFPAHKCICY-NH2)
IC50 [1, 6]: 201 µg/mL (≈ 134 µM) | MIC [1, 7]: 300 µg/mL (≈ 200 µM) | F CULMORUM IC50 [1]: 189 µg/mL | F CULMORUM MIC [1, 8]: 300 µg/mL | A PISI IC50 [2, 8]: 298 µg/mL | A PISI MIC [2, 8]: 400 µg/mL

CC[C@H](C)[C@H](NC(=O)[C@H](CS)NC(=O)[C@H](CCCCN)NC(=O)[C@H](Cc1c[nH]cn1)NC(=O)[C@H](C)NC(=O)[C@@H]1CCCN1C(=O)[C@H](Cc1ccccc1)NC(=O)[C@@H](NC(=O)[C@H](Cc1ccc(O)cc1)NC(C)=O)C(C)C)C(=O)N[C@@H](CS)C(=O)N[C@@H](Cc1ccc(O)cc1)C(=O)N[C@@H](Cc1ccccc1)C(N)=O [compound 127] (Ac-YVFPAHKCICYF-NH2)
F CULMORUM IC50 [1]: 354 µg/mL | F CULMORUM MIC [1, 8]: >400 µg/mL | A PISI IC50 [2, 8]: 302 µg/mL | A PISI MIC [2, 8]: 400 µg/mL

CC[C@H](C)[C@H](NC(=O)[C@H](CS)NC(=O)[C@H](CCCCN)NC(=O)[C@H](Cc1c[nH]cn1)NC(=O)[C@H](C)NC(=O)[C@@H]1CCCN1C(=O)[C@H](Cc1ccccc1)NC(=O)[C@@H](NC(C)=O)C(C)C)C(=O)N[C@@H](CS)C(=O)N[C@@H](Cc1ccc(O)cc1)C(=O)N[C@@H](Cc1ccccc1)C(=O)N1CCC[C@H]1C(N)=O [compound 128] (Ac-VFPAHKCICYFP-NH2)
IC50 [1, 6]: 344 µg/mL (≈ 235 µM) | MIC [1, 7]: >400 µg/mL | F CULMORUM IC50 [1]: 320 µg/mL | F CULMORUM MIC [1, 8]: >400 µg/mL | A PISI IC50 [2, 8]: 181 µg/mL | A PISI MIC [2, 8]: 400 µg/mL

Ac-ARHGSCNYV-NH2 [compound 77]
IC50 [1, 3]: 189 µg/mL | MIC [1, 4]: 300 µg/mL | F CULMORUM IC [1]: 193 µg/mL | F CULMORUM MIC [1, 5]: 300 µg/mL | A PISI MIC [2, 5]: 200 µg/mL | A PISI IC [2, 5]: 143 µg/mL

Ac-CNYVFPAHK-NH2 [compound 82]
IC50 [1, 3]: 77 µg/mL | MIC [1, 4]: 100 µg/mL | F CULMORUM IC [1]: 113 µg/mL | F CULMORUM MIC [1, 5]: 150 µg/mL | A PISI MIC [2, 5]: 400 µg/mL | A PISI IC [2, 5]: 265 µg/mL

Ac-EKARHGSCNYVF-NH2 [compound 118]
IC50 [1, 6]: 154 µg/mL | MIC [1, 7]: 200 µg/mL | F CULMORUM IC50 [1]: 63 µg/mL | F CULMORUM MIC [1, 8]: 100 µg/mL | A PISI IC50 [2, 8]: 91 µg/mL | A PISI MIC [2, 8]: 200 µg/mL

Ac-HGSCNYVFPAHK-NH2 [compound 122]
IC50 [1, 6]: 30 µg/mL | MIC [1, 7]: 50 µg/mL | F CULMORUM IC50 [1]: 35 µg/mL | F CULMORUM MIC [1, 8]: 50 µg/mL | A PISI IC50 [2, 8]: 74 µg/mL | A PISI MIC [2, 8]: 100 µg/mL

Ac-KARHGSCNY-NH2 [compound 76]
IC50 [1, 3]: 162 µg/mL | MIC [1, 4]: 300 µg/mL | F CULMORUM IC [1]: 169 µg/mL | F CULMORUM MIC [1, 5]: 250 µg/mL | A PISI MIC [2, 5]: >400 µg/mL | A PISI IC [2, 5]: 342 µg/mL

Ac-KARHGSCNYVFP-NH2 [compound 119]
IC50 [1, 6]: 37 µg/mL | MIC [1, 7]: 50 µg/mL | F CULMORUM IC50 [1]: 33 µg/mL | F CULMORUM MIC [1, 8]: 50 µg/mL | A PISI IC50 [2, 8]: 66 µg/mL | A PISI MIC [2, 8]: 100 µg/mL

Ac-LEKARHGSCNYV-NH2 [compound 117]
IC50 [1, 6]: 327 µg/mL | MIC [1, 7]: >400 µg/mL | F CULMORUM IC50 [1]: 347 µg/mL | F CULMORUM MIC [1, 8]: 400 µg/mL | A PISI IC50 [2, 8]: 293 µg/mL | A PISI MIC [2, 8]: 400 µg/mL

Ac-RHGSCNYVF-NH2 [compound 78]
IC50 [1, 3]: 284 µg/mL | MIC [1, 4]: 400 µg/mL | F CULMORUM IC [1]: 69 µg/mL | F CULMORUM MIC [1, 5]: 100 µg/mL | A PISI MIC [2, 5]: 100 µg/mL | A PISI IC [2, 5]: 70 µg/mL
